Tests used:
[1] = tested on: spinal dorsal horn outer lamina II (IIo) neurons; experiment: Patch clamp recording of sEPSCs in spinal cord slices of naive mice; type: cell-based, mouse; conditions: DPCPX alone 1 μM
A1R = experiment: Reversal of JH-ENT-01 analgesia by A1R antagonist in STZ-treated mice; type: in vivo, mouse; conditions: i.t. 10 nmol, 30 min prior to JH-ENT-01 10 nmol
[2] = tested on: adenosine receptor subtypes (A1R, A2AR, A2BR, A3R); type: in vivo, mouse; conditions: i.t. 10 nmol
G154S hENT1 = target: T1, G154S hENT1 (Homo sapiens, UniProt Q99808, G154S); experiment: [3H]-adenosine uptake in oocytes expressing G154S hENT1; type: cell-based; conditions: Fig 1g
T1 sequence (Q99808 1-456 G154S): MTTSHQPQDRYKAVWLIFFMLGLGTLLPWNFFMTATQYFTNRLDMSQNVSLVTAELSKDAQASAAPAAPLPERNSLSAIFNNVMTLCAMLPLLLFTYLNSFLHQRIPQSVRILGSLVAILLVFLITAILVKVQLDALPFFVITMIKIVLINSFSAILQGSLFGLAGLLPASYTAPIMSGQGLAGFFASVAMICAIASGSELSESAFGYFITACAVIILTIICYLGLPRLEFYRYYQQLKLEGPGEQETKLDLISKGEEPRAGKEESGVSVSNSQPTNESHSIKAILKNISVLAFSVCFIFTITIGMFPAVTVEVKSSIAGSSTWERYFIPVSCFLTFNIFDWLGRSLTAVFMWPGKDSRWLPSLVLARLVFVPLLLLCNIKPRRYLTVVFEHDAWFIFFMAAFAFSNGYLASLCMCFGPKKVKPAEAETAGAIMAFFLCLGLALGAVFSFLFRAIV

mice [3] = experiment: Electrocardiogram; type: in vivo, mouse
[4] = tested on: mice, formalin-induced inflammatory pain; experiment: Formalin-induced acute inflammatory pain; type: in vivo, mouse; conditions: i.t., JH-ENT-01 1, 10, 100 nmol, dilazep 100 nmol
mice [5] = experiment: Rotarod test before and 60 min after i.t. delivery; type: in vivo, mouse; conditions: 60 min after i.t. 100 nmol
[6] = tested on: mice, CFA-induced inflammatory pain; experiment: CFA-induced persistent inflammatory pain, von Frey test; type: in vivo, mouse; conditions: i.v., 10 mg/ml as printed; days 1, 3, 5 after CFA
[7] = tested on: mice with STZ-induced diabetic neuropathy; experiment: STZ-induced diabetic neuropathy, mechanical pain; type: in vivo, mouse
[8] = Plasma and tissue pharmacokinetics after subcutaneous administration; type: in vivo; conditions: male, CD-1, mouse, plasma, sc
[9] = tested on: mice with STZ-induced diabetic neuropathy; experiment: Survival of STZ mice after repeated injections; type: in vivo, mouse

For CCCn1c(=O)c2[nH]c(C3CCCC3)nc2n(CCC)c1=O [DPCPX], the “sEPSC frequency and amplitude” value [1] was “no effects on sEPSC frequency and amplitude”, the “effect on analgesic action of JH-ENT-01 (PWT)” value (A1R) was “prevented” and the “reversal of JH-ENT-01 analgesia” value [2] was “reversal”.
For COc1cc(C(=O)OCCCN2CCCN(CCCOC(=O)c3cc(OC)c(OC)c(OC)c3)CC2)cc(OC)c1OC [dilazep], the “preferential inhibition of wild type hENT1 over G154S” value (G154S hENT1) was “did not show any preference”, the “effect on heart rates” value (mice [3]; i.p. 10 mg/kg and 30 mg/kg) was “no significant decrease” and the “effect on heart rates” value (mice [3]; i.v. 30 mg/kg, first hour) was “significant decrease”. The “formalin-induced 2nd phase pain” value [4] was “significant inhibition of phase 2 pain only when data from both sexes were combined”, the “formalin-induced phase 1 pain” value ([4]; both sexes) was “not affected” and the “motor function in rotarod test” value (mice [5]) was “no significant changes in the falling latency”. For the same compound, the “paw withdrawal frequency (PWF)” value [6] was “no effects”, the “paw withdrawal threshold (PWT)” value [6] was “no effects” and the “paw withdrawal threshold (PWT)” value ([7]; i.t. 10 nmol) was “failed to elicit an increase in PWT”. The “paw withdrawal threshold (PWT)” value ([7]; i.v. 30 mg/kg on days 8, 10, 12 after STZ) was “did not observe any analgesic effect”, the “neuropathic pain in the STZ model” value ([7]; s.c. 3 x 30 mg/kg) was “no effects” and the Cmax [8] was 409 ng/mL. For the same compound, the “death / survival of mice” value ([9]; i.v. 30 mg/kg, 3 injections) was 7 out of 16 and the survival of mice ([9]; s.c. 3 x 30 mg/kg) was “all mice survived”.
